# System: Mild to Moderate Osteoarthritis of the Knee
# Test: Phase 2 study: WOMAC (VAS) pain subscale score, target knee
# Assay type: in vivo, human
# Details: for WOMAC Pain Subscale Score, Avg.: Avg. of all patients; for WOMAC Pain Subscale Score, Avg. / WOMAC Pain Subscale Score: blinded, High Dose (8 spray/knee, 35 mg/knee) Cohort; for WOMAC Pain Subscale Score, cohort Avg.: low dose cohort 8.75 mg/knee BID, blinded (active + placebo), Day 1 Avg. 59.8; for difference of LS mean (8.75 mg-control), change from baseline in WOMAC pain subscale score / Change from baseline in WOMAC pain subscale score, LS mean (95% ci): Group A, 8.75 mg/knee; for difference of LS mean (8.75 mg-control), change from baseline in WOMAC pain subscale score / difference of LS mean (testing Drug-control), change from baseline in WOMAC pain subscale score: bid vs placebo; for Change from baseline in WOMAC pain subscale score, LS mean (95% ci) / Change from baseline in WOMAC pain subscale score, LS mean: bid; for difference of LS mean (testing Drug-control), change from baseline in WOMAC pain subscale score / Change from baseline in WOMAC pain subscale score, LS mean: Group C, 35 mg/knee; for WOMAC Pain Subscale Score: individual patient
# Excerpt: This is a Phase 2, multicenter, randomized, double blind (within dose), placebo controlled, parallel group, proof of concept, and dose range finding study to evaluate the efficacy, safety, and PK of 2-(diethylamino)ethyl 2-(4-isobutylphenyl)propionate hydrochloride spray in adult subjects with clinically symptomatic mild to moderate OA of the knee. For subjects with bilateral knee pain, both knees will be treated, but the most symptomatic knee (i.e., the most painful knee as measured by the Western Ontario and McMaster University Osteoarthritis Index [WOMAC® 3.1] pain subscale score at Screening) will be designated as the target knee for efficacy analyses. For subjects with unilateral knee pain, only the symptomatic (target) knee will be treated.
# After a Screening Period of up to 3 weeks and radiographic evaluation of the target knee joint space, a subject will be randomly assigned to 1 of 3 treatment groups in a 1:1:1 ratio with a 2:1 ratio of active:placebo within each treatment group (ie, 2 subjects to active treatment and 1 subject to placebo): • Group A: 8.75 mg 2-(diethylamino)ethyl 2-(4-isobutylphenyl)propionate/knee (2 sprays/knee, one spray to the medial surface and one spray to the lateral surface of the knee), twice daily (BID, approximately every 12 hours; n=50) or placebo (2 sprays/knee), BID (approximately every 12 hours; n=25) for a total of 4 sprays per knee per day; • Group B: 17.5 mg 2-(diethylamino)ethyl 2-(4-isobutylphenyl)propionate/knee (4 sprays/knee, one spray to the medial surface and one spray to the lateral surface of the knee, and one spray to front and one spray to the back of the knee), BID (approximately every 12 hours; n=50) or placebo (4 sprays/knee), BID (approximately every 12 hours; n=25) for a total of 8 sprays per knee per day; • Group C: 35 mg 2-(diethylamino)ethyl 2-(4-isobutylphenyl)propionate/knee (8 sprays/knee, each spray is to be applied to a different non-overlapping area around the knee, and the areas are to be uniformly distributed around the knee), BID (approximately every 12 hours; n=50) or placebo (8 sprays/knee), BID (approximately every 12 hours; n=25) for a total of 16 sprays per knee per day.
# The VAS version of the WOMAC will be used for the Primary and Secondary Efficacy Endpoints. Efficacy endpoints will be assessed at Screening and Baseline (Day 1) and at the Week 2, Week 4, Week 8, and Week 12/EOS visits.
# The Primary Efficacy Endpoint is the change from Baseline in the WOMAC (VAS) pain subscale score for the target knee at […] of treatment.
# 3.9.2. Secondary Efficacy Endpoints: • 1. Change from Baseline in the WOMAC (VAS) pain subscale score for the target knee at 2, 4, and 8 weeks of treatment; • 2. Change from Baseline in the WOMAC (VAS) stiffness subscale scores for the target knee and WOMAC (VAS) functional ability subscale scores at 2, 4, 8, and 12 weeks of treatment; • 3. Change from Baseline in the overall WOMAC (VAS) score at 2, 4, 8, and 12 weeks of treatment.
# The Primary Efficacy Endpoint is change from Baseline in the WOMAC (VAS) pain subscale score for the target knee at 4 weeks of treatment, and will be analyzed using an analysis of covariance (ANCOVA). Treatment will be included as a fixed class effect and WOMAC Baseline pain subscale score as covariates. The primary comparisons of interest will be the difference between active Group A (8.75 mg 2-(diethylamino)ethyl 2-(4-isobutylphenyl)propionate/knee) and combined placebo, active Group B (17.5 mg 2-(diethylamino)ethyl 2-(4-isobutylphenyl)propionate/knee) and combined placebo, and active Group C (35 mg 2-(diethylamino)ethyl 2-(4-isobutylphenyl)propionate/knee) and combined placebo. […]
structure (smiles),measurement,setting,value
CCN(CC)CCOC(=O)C(C)c1ccc(CC(C)C)cc1 (stereo not drawn) [2-(diethylamino)ethyl 2-(4-isobutylphenyl)propionate],reduction of pain WOMAC from baseline to week 12,5 patients on second batch active drug kits,81-98%
same,"WOMAC Pain Subscale Score, Avg.",Day 1,59.2
same,"WOMAC Pain Subscale Score, Avg.",Follow-up,35.2
same,"WOMAC Pain Subscale Score, Avg.",Week 2,46.6
same,"WOMAC Pain Subscale Score, Avg.",Week 4,41.5
same,"WOMAC Pain Subscale Score, Avg.",Week 8,37.0
same,"WOMAC Pain Subscale Score, Avg.",Week 12,33.8
same,"WOMAC Pain Subscale Score, cohort Avg.",Follow-up,39.7
same,"difference of LS mean (8.75 mg-control), change from baseline in WOMAC pain subscale score",Week 2,6.7 mm
same,"difference of LS mean (8.75 mg-control), change from baseline in WOMAC pain subscale score",Week 4,10.5 mm
same,"difference of LS mean (8.75 mg-control), change from baseline in WOMAC pain subscale score",Week 8,7.9 mm
same,"difference of LS mean (8.75 mg-control), change from baseline in WOMAC pain subscale score",Week 12/EOS,8.6 mm
same,"Change from baseline in WOMAC pain subscale score, LS mean (95% ci)",Week 2,"−7.5 (−13.3, −1.7) mm"
same,"Change from baseline in WOMAC pain subscale score, LS mean (95% ci)",Week 4,"−10.6 (−17.1, −4.1) mm"
same,"Change from baseline in WOMAC pain subscale score, LS mean (95% ci)",Week 8,"−15.7 (−22.5, −8.8) mm"
same,"Change from baseline in WOMAC pain subscale score, LS mean (95% ci)",Week 12/EOS,"−16.1 (−23.6, −8.6) mm"
same,"difference of LS mean (testing Drug-control), change from baseline in WOMAC pain subscale score",Week 2,−11.5 mm
same,"difference of LS mean (testing Drug-control), change from baseline in WOMAC pain subscale score",Week 4,−12.8 mm
same,"difference of LS mean (testing Drug-control), change from baseline in WOMAC pain subscale score",Week 8,−6.0 mm
same,"difference of LS mean (testing Drug-control), change from baseline in WOMAC pain subscale score",Week 12/EOS,−4.1 mm
same,"Change from baseline in WOMAC pain subscale score, LS mean",Week 2,−15.6 mm
same,"Change from baseline in WOMAC pain subscale score, LS mean",Week 4,−21.2 mm
same,"Change from baseline in WOMAC pain subscale score, LS mean",Week 8,−24.0 mm
same,"Change from baseline in WOMAC pain subscale score, LS mean",Week 12/EOS,−26.9 mm
same,"WOMAC Pain Subscale, WOMAC VAS Score","Patient 1056, second batch active drug kits, Day 1",51.8 mm
same,"WOMAC Pain Subscale, WOMAC VAS Score","Patient 1056, second batch active drug kits, Follow Up",10.0 mm
same,"WOMAC Pain Subscale, WOMAC VAS Score","Patient 1056, second batch active drug kits, Week 2",31.0 mm
same,"WOMAC Pain Subscale, WOMAC VAS Score","Patient 1056, second batch active drug kits, Week 4",22.6 mm
same,"WOMAC Pain Subscale, WOMAC VAS Score","Patient 1056, second batch active drug kits, Week 8",28.0 mm
same,"WOMAC Pain Subscale, WOMAC VAS Score","Patient 1056, second batch active drug kits, Week 12",12.0 mm
same,"WOMAC Pain Subscale, WOMAC VAS Score","Patient 1064, second batch active drug kits, Day 1",32.6 mm
same,"WOMAC Pain Subscale, WOMAC VAS Score","Patient 1064, second batch active drug kits, Follow Up",1.6 mm
same,"WOMAC Pain Subscale, WOMAC VAS Score","Patient 1064, second batch active drug kits, Week 2",21.6 mm
same,"WOMAC Pain Subscale, WOMAC VAS Score","Patient 1064, second batch active drug kits, Week 4",1.8 mm
same,"WOMAC Pain Subscale, WOMAC VAS Score","Patient 1064, second batch active drug kits, Week 8",1.0 mm
same,"WOMAC Pain Subscale, WOMAC VAS Score","Patient 1064, second batch active drug kits, Week 12",0 mm
same,"WOMAC Pain Subscale, WOMAC VAS Score","Patient 1535, second batch active drug kits, Day 1",40.4 mm
same,"WOMAC Pain Subscale, WOMAC VAS Score","Patient 1535, second batch active drug kits, Follow Up",0.0 mm
same,"WOMAC Pain Subscale, WOMAC VAS Score","Patient 1535, second batch active drug kits, Week 2",2.8 mm
same,"WOMAC Pain Subscale, WOMAC VAS Score","Patient 1535, second batch active drug kits, Week 4",2.6 mm
same,"WOMAC Pain Subscale, WOMAC VAS Score","Patient 1535, second batch active drug kits, Week 8",4.0 mm
same,"WOMAC Pain Subscale, WOMAC VAS Score","Patient 1535, second batch active drug kits, Week 12",0.6 mm
same,"WOMAC Pain Subscale, WOMAC VAS Score","Patient 1539, second batch active drug kits, Day 1",63.0 mm
same,"WOMAC Pain Subscale, WOMAC VAS Score","Patient 1539, second batch active drug kits, Follow Up",5.0 mm
same,"WOMAC Pain Subscale, WOMAC VAS Score","Patient 1539, second batch active drug kits, Week 2",47.6 mm
same,"WOMAC Pain Subscale, WOMAC VAS Score","Patient 1539, second batch active drug kits, Week 4",48.2 mm
same,"WOMAC Pain Subscale, WOMAC VAS Score","Patient 1539, second batch active drug kits, Week 8",1.8 mm
same,"WOMAC Pain Subscale, WOMAC VAS Score","Patient 1539, second batch active drug kits, Week 12",9.4 mm
same,"WOMAC Pain Subscale, WOMAC VAS Score","Patient 9032, second batch active drug kits, Day 1",16.6 mm
same,"WOMAC Pain Subscale, WOMAC VAS Score","Patient 9032, second batch active drug kits, Follow Up",3.0 mm
same,"WOMAC Pain Subscale, WOMAC VAS Score","Patient 9032, second batch active drug kits, Week 2",11.2 mm
same,"WOMAC Pain Subscale, WOMAC VAS Score","Patient 9032, second batch active drug kits, Week 4",6.2 mm
same,"WOMAC Pain Subscale, WOMAC VAS Score","Patient 9032, second batch active drug kits, Week 8",4.4 mm
same,"WOMAC Pain Subscale, WOMAC VAS Score","Patient 9032, second batch active drug kits, Week 12",3.2 mm
same,"WOMAC Pain Subscale Score, cohort Avg.",Week 2,48.6
same,"WOMAC Pain Subscale Score, cohort Avg.",Week 4,42.8
same,"WOMAC Pain Subscale Score, cohort Avg.",Week 8,38.4
same,"WOMAC Pain Subscale Score, cohort Avg.",Week 12,38.2
same,WOMAC Pain Subscale Score,Day 1,59.4
same,WOMAC Pain Subscale Score,Follow-up,67.0

# Reference: patent US20240024273A1, “TOPICAL ADMINISTRATION OF 2-(DIETHYLAMINO)ETHYL 2-(4-ISOBUTYLPHENYL)PROPRIONATE FOR TREATMENT OF DISEASES” (TECHFIELDS PHARMA CO., LTD., priority 2020, published 2024)
